The values that follow come from patent publication US20040219220A1, “Therapeutic agents” (priority 2001, published 2004).

Data set [1] in a line: Extruder barrel temperature profile: ibuprofen content and degradation products after melt extrusion (Example 24). The class given is physicochemical. Conditions: up to a maximum extruder setting of 140 C. How it is done:
The method set out in Example 1 was used. The extruder screw speed was set to a constant 600 rpm. The powder feed rate was also set to a constant value. to give a constant feed rate of powder into the extruder. The product of each trial was analysed to determine the level of the two major ibuprofen degradation products: 2-(4-isobutyrylphenyl) propionic acid (BTS 47711) and 4-isobutylacetophenone (BTS 40655).

Data set [2] is described as follows: Extruder temperature/throughput matrix: ibuprofen content and degradation products after melt extrusion (Example 25). The class given is physicochemical. Conditions: 95 C to 130 C, 102 kg/hour to 216 kg/hour. The method, then: Further trials using the method of Example 1 but under process conditions as shown in Table 3 were conducted to determine the maximum output from the extruder by varying barrel temperature and powder feed rates, as shown in Table IIA.10.
Once the required extruder barrel temperature had been reached, the extruder was started and allowed to run for 15 minutes in order to equilibrate prior to sample collection.
Samples were collected for analysis to determine the level of degradation products formed.

Turning to `CC(C)Cc1ccc(C(C)C(=O)O)cc1` (racemic) [ibuprofen], in data set [1], the “ibuprofen degradation as a result of the melt extrusion process” value is recorded as “no evidence of ibuprofen degradation”. Moreover, in data set [2], the “degradation of ibuprofen over extruder barrel temperatures and throughputs” value is “no evidence of degradation”.
